Publication PMC13534789, “Molecular Glue Degraders Enhance CAPRIN1‐Dependent Lysosomal Degradation of APP and Reduce Amyloid β in Alzheimer's Disease” (Advanced Science, 2026)

Tests used:
[1] = IV and PO pharmacokinetics in mice; assay type: in vivo, C57BL/6 male mice; details: male; for AUC(0-t) / half-life / C0 / Tmax / Cmax: mouse plasma; for C0 / Cmax: read-out: C0/Cmax; for bioavailability: C57BL/6, mouse, plasma, oral, 10 mg/kg, PO 10 mpk vs IV 1 mpk, read-out: %F (oral bioavailability); for bioavailability / clearance / Vd: mouse; for clearance / Vd: C57BL/6, plasma, 1 mg/kg; for Vd: read-out: Vss
Procedure: IV and PO PK in rodents were processed by Sai Life Sciences Pvt. Ltd using 8‐ to 10‐week‐old C57BL/6 male mice following a single intravenous administration at 1 mg/kg and oral administration at 10 mg/kg. A total of eighteen mice (n = 9/group) were divided into two groups as Group 1 and Group 2, with a sparse sampling design (3 mice/time points). Animals in Group 1 were administered intravenously as slow bolus injections through the tail vein at 1 mg/kg dose, and animals in Group 2 were administered through the oral route at 10 mg/kg. For 0043, the formulation vehicle used for IV group was 5% NMP, 10% PG, 5% Solutol HS‐15, and 80% Captisol (10% w/v in RO water), and the formulation used for the PO group was 10% NMP, 10% PG, 10% TPGS, and 70% Captisol (10% w/v in RO water). For 0152, the formulation vehicle used for IV group was 5% DMSO, 20% Solutol HS‐15, and 75% PBS, and the formulation used for PO group was 5% NMP, 10% PG, 5% Solutol HS‐15, and 80% Captisol (10% w/v in RO water). Blood samples (approximately 60 µL) were collected under light isoflurane anesthesia (Surgivet) from retro orbital plexus from a set of three mice at 0.08, 0.25, 0.5, 1, 2, 4, 6, 8 and 24 h for IV and […], 0.5, 1, 2, 4, 6, 8 and 24 h for PO. Immediately after blood collection, plasma was harvested by centrifugation at 10 000 rpm, 10 min at […], and samples were stored at ‐70±10°C until bioanalysis. All samples were processed for analysis by the protein precipitation method and analyzed with a fit‐for‐purpose LC‐MS/MS method (LLOQ = 1.01 ng/mL). The plasma pharmacokinetic parameters were estimated using the non‐compartmental analysis tool of Phoenix WinNonlin software (Ver 8.3).

CAPRIN1–APP interaction = CAPRIN1–APP interaction (Homo sapiens, UniProt P05067+Q14444); test: CAPRIN1–APP interaction in cells (co-IP, confocal colocalization); assay type: cell-based; set-up: endogenous in cells; host or cells: AG27606-Ns, sAD2.3-Ns (iPSC-derived neurons) and their lysates; details: 10 µM, 24 h; for APP–CAPRIN1 colocalization (confocal, Pearson's coefficient): AG27606-Ns and sAD2.3-Ns
Procedure: Cells were lysed in 1% Triton X‐100 buffer (50 mM Tris (pH 7.4), 150 mM NaCl, 10% glycerol, 1% Triton X‐100, 1 mM EDTA) or RIPA buffer (50 mM Tris (pH7.5), 150 mM NaCl, 0.5% NP40, 0.5% deoxycholate, 0.1% SDS) supplemented with 1 mM PMSF, protease and phosphatase inhibitors. For immunoprecipitation, cell lysates (0.5–1 mg) were incubated with the primary antibodies (1–2 µg) overnight at 4°C and mixed with protein G beads for 4 h. The immunoprecipitants were washed with 1% Triton X‐100 buffer 3 times and eluted with Laemmli buffer, followed by western blot. Immunoprecipitations were performed using the following approaches: (i) Tagged CAPRIN1 immunoprecipitation (HEK293 overexpression assays): HEK293 cells were co‐transfected with APP constructs (including APP695‐HiBiT) and Flag‐ or Myc‐tagged CAPRIN1. CAPRIN1 was immunoprecipitated using anti‐Flag or anti‐Myc antibodies, and co‐precipitated APP was detected by immunoblot; (ii) Endogenous APP immunoprecipitation: APP was immunoprecipitated using anti‐APP antibody (Sigma, A8717), followed by immunoblotting for CAPRIN1. Where indicated, reciprocal immunoprecipitation using anti‐CAPRIN1 antibody was performed, followed by APP detection; (iii) CAPRIN1 immunoprecipitation: In selected experiments, CAPRIN1 was immunoprecipitated using anti‐CAPRIN1 antibody (Proteintech, 15112‐1‐AP), and co‐precipitated proteins including APP and LAMP1 were analyzed by immunoblot; (iv) HiBiT‐based pull‐down assays: In HEK293 cells expressing APP695‐HiBiT, APP constructs were immunoprecipitated using anti‐HiBiT antibody (Promega, N7200), followed by detection of CAPRIN1. Western blot bands were quantified using Fiji (ImageJ) with background subtraction and normalized to loading controls.
Cells were grown on glass cover slips coated with 1% Matrigel and treated with drugs. Cells were washed, fixed, permeabilized, blocked, and incubated in primary antibodies diluted in blocking solution (1% v/v BSA solution/5% Goat serum in PBS containing 0.1% Triton X‐100) overnight at 4°C. The cells were washed three times with PBS and incubated in secondary antibodies in a blocking solution for 1 h at room temperature, then washed with PBS, followed by HOECHST staining (Invitrogen) for 5 min, and washed with PBS. The glass coverslips were put on a slide‐in mounting medium ([…]), and the edges were sealed with coverslip sealant (BIOTIUM). […]
ImageJ (Fiji) program (NIH, Bethesda, MD, USA) was used o analyze images. Pearson's correlation coefficients were calculated with the JACoP plugin from two channels (BIOP). […] Colocalized areas were calculated in the image calculator tool ([…] function) to get an overlayed area for the segmented signals, followed by using the analyze particle tool in Fiji to determine by > 1‐pixel overlapping of the segmented signal. […]

Chain of CAPRIN1–APP interaction (Q14444 2-709 limits assumed): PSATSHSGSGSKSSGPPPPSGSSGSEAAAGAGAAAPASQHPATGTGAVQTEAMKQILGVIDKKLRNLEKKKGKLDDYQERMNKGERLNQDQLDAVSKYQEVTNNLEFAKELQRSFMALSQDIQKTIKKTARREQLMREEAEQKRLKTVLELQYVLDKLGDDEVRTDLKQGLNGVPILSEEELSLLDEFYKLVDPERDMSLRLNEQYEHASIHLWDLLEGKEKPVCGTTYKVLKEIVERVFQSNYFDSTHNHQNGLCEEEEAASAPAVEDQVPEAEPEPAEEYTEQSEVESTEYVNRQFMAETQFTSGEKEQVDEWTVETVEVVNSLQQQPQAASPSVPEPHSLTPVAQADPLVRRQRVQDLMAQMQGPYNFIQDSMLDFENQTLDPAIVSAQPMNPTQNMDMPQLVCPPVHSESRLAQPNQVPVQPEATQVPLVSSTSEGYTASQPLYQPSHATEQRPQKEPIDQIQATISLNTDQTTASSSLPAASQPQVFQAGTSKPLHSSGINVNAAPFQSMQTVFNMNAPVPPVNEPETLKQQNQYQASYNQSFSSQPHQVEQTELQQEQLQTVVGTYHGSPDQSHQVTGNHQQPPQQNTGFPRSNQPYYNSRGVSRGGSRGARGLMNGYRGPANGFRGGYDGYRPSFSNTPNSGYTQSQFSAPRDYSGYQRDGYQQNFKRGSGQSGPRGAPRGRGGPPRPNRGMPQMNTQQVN
Chain of CAPRIN1–APP interaction (P05067 18-695 isoform P05067-4 limits assumed): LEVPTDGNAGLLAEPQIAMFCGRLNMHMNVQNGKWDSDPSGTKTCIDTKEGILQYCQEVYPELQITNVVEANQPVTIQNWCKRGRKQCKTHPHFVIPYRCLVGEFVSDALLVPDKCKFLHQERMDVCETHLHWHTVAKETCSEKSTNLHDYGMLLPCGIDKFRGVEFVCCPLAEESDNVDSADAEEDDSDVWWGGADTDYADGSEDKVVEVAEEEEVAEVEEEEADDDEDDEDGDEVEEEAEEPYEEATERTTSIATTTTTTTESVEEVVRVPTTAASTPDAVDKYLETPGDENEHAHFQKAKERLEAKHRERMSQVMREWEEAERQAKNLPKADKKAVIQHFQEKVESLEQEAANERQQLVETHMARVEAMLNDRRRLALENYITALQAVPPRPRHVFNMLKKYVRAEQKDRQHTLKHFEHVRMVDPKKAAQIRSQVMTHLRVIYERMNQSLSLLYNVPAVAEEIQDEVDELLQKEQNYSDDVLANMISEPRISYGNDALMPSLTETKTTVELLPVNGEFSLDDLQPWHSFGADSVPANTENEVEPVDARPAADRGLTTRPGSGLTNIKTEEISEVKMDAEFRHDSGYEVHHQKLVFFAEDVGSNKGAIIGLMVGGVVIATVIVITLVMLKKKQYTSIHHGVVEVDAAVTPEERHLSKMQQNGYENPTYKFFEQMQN

N#Cc1cccc(NC(=O)Nc2nc3ccc(C(=O)N4CCOCC4)cc3s2)c1 [compound 0043]
AUC(0-t) ([1]; C57BL/6, 1 mg/kg, IV, 1 mpk): 219 ng·h/mL
half-life ([1]; C57BL/6, 1 mg/kg, IV, 1 mpk): 9.6 min
C0 ([1]; C57BL/6, 1 mg/kg, IV, 1 mpk): 1380 ng/mL
AUC(0-t) ([1]; C57BL/6, 10 mg/kg, PO, 10 mpk): 107 ng·h/mL
Tmax ([1]; C57BL/6, 10 mg/kg, PO, 10 mpk): 15 min
half-life ([1]; C57BL/6, 10 mg/kg, PO, 10 mpk): 95.4 min
Cmax ([1]; C57BL/6, 10 mg/kg, PO, 10 mpk): 97.5 ng/mL
bioavailability [1]: 5%
clearance ([1]; IV, 1 mpk): 75.3 mL/min/kg
Vd ([1]; IV, 1 mpk): 0.77 L/kg
APP–CAPRIN1 colocalization (confocal, Pearson's coefficient) (CAPRIN1–APP interaction): increased co‐localization of APP and CAPRIN1
CAPRIN1–APP interaction (APP IP, CAPRIN1 immunoblot) (CAPRIN1–APP interaction; AG27606-Ns): enhances CAPRIN1‐APP interaction
CAPRIN1–APP interaction (co-IP) (CAPRIN1–APP interaction; HEK-APP695 cells): enhanced the interaction between CAPRIN1 and APP

COc1cccc(NC(=O)Nc2nc3ccc(C(=O)N4CCOCC4)cc3s2)c1 [compound 0152]
AUC(0-t) ([1]; C57BL/6, 1 mg/kg, IV, 1 mpk): 209 ng·h/mL
half-life ([1]; C57BL/6, 1 mg/kg, IV, 1 mpk): 25.2 min
C0 ([1]; C57BL/6, 1 mg/kg, IV, 1 mpk): 938 ng/mL
AUC(0-t) ([1]; C57BL/6, 10 mg/kg, PO, 10 mpk): 624 ng·h/mL
Tmax ([1]; C57BL/6, 10 mg/kg, PO, 10 mpk): 30 min
half-life ([1]; C57BL/6, 10 mg/kg, PO, 10 mpk): 144 min
Cmax ([1]; C57BL/6, 10 mg/kg, PO, 10 mpk): 804 ng/mL
bioavailability [1]: ≤ 30%
clearance ([1]; IV, 1 mpk): 78.6 mL/min/kg
Vd ([1]; IV, 1 mpk): 1.34 L/kg
APP–CAPRIN1 colocalization (confocal, Pearson's coefficient) (CAPRIN1–APP interaction): increased colocalization of APP and CAPRIN1
